Reference: patent publication US5096911A, “Alteration of rate and character of hair growth” (priority 1990, dated 1992)

Legend:
[1] = tested on: Hamster flank organ hair; assay: Inhibition of hair growth: hamster flank organ hair mass after topical application; format: in vivo, male intact Golden Syrian hamsters; conditions: three weeks; for Percent Inhibition (of hair mass vs vehicle-treated organ) / Hamster Flank Organ Hair Mass, Treated (mean): once a day, five days a week
Source text: Acivicin (Sigma Chemical Co., St. Louis) was mixed with separate portions of the foregoing vehicle to provide specimens containing 1,2, and 6% by weight respectively of the inhibitor and the pH was adjusted to pH 7.5 with sodium hydroxide.
Four groups (eight animals in each group) of male intact Golden Syrian hamsters were provided. These animals were considered acceptable models for human beard hair growth in that they display oval shaped flank organs, one on each side, each about 8 mm. in major diameter, which grow thick black and coarse hair similar to human beard hair. These organs produce hair in response to androgens in the hamster. The flank organs of each hamster were depilated by applying a thioglycolate- based chemical depilatory (Surgex), and to one organ of each animal was applied 10-25 mg. of vehicle alone once a day, while to the other organ of each animal was applied an equal amount of vehicle containing inhibitor. After three weeks of such applications (five days a week), the flank organs were shaved and the amount of recovered hair (hair mass) from each was weighed. The extent of reduction in hair growth by the inhibitor was expressed as the percent decrease in hair mass on the organ treated with inhibitor as compared to the organ treated with vehicle alone. As a control, one group of eight animals had both flank organs of each animal treated with vehicle alone.
A composition was prepared containing 5% by weight of bromsulphalein disodium in the vehicle described in Example I above, and applied to hamster flank organs under the same conditions as described in Example 1.
The anthglutin prepared as described above was dissolved in specimens of the vehicle described in Example 1 and applied to the flank organs of groups of hamsters in the same manner as described in Example 1, a group of eight animals being used for each different composition.

[2] = tested on: follicle enzyme; assay: Inhibition of follicle enzyme activity after topical treatment over three weeks; format: in vivo, Golden Syrian hamsters; conditions: 6% solution, three week period
[3] = tested on: hair follicle gamma-glutamyl transpeptidase; assay: Inhibition of hair follicle gamma-glutamyl transpeptidase activity; format: biochemical
[4] = tested on: gamma-glutamyl transpeptidase; conditions: Japanese Patent No. 53-127,432; Minato, Archives Biochem. Biophy., Vol. 192, 235-240 (1979); cited from earlier work

SMILES: N[C@H](C(=O)O)[C@@H]1CC(Cl)=NO1 [Acivicin, (alpha S,5S)-amino-3-chloro-4,5-dihydro-isoxazole acetic acid]
- Percent Inhibition (of hair mass vs vehicle-treated organ) ([1]; acivicin 1.0%, topical): 18.2%
- Hamster Flank Organ Hair Mass, Treated (mean) ([1]; acivicin 1.0%, topical, contralateral vehicle organ 1.04 mg): 0.85 mg
- Percent Inhibition (of hair mass vs vehicle-treated organ) ([1]; acivicin 2.0%, topical): 57.9%
- Hamster Flank Organ Hair Mass, Treated (mean) ([1]; acivicin 2.0%, topical, contralateral vehicle organ 1.33 mg): 0.56 mg
- Percent Inhibition (of hair mass vs vehicle-treated organ) ([1]; acivicin 6.0%, topical): 81.0%
- Hamster Flank Organ Hair Mass, Treated (mean) ([1]; acivicin 6.0%, topical, contralateral vehicle organ 0.79 mg): 0.15 mg
- character of hair on the treated organ vs untreated organ ([1]; topical acivicin): more vellus in nature
- inhibition of follicle enzyme activity [2]: about 87%

SMILES: N[C@@H](CCC(=O)NNc1ccccc1C(=O)O)C(=O)O [Anthglutin, 1-gamma-L-glutamyl-2 (2-carboxyphenyl)-hydrazine]
- Percent Inhibition (of hair mass vs vehicle-treated organ) ([1]; anthglutin 0.5%, topical): 10.7%
- Hamster Flank Organ Hair Mass, Treated (mean) ([1]; anthglutin 0.5%, topical, contralateral vehicle organ 2.03 mg): 1.81 mg
- Percent Inhibition (of hair mass vs vehicle-treated organ) ([1]; anthglutin 1.0%, topical): 16.7%
- Hamster Flank Organ Hair Mass, Treated (mean) ([1]; anthglutin 1.0%, topical, contralateral vehicle organ 1.92 mg): 1.60 mg
- Percent Inhibition (of hair mass vs vehicle-treated organ) ([1]; anthglutin 2.0%, topical): 38.6%
- Hamster Flank Organ Hair Mass, Treated (mean) ([1]; anthglutin 2.0%, topical, contralateral vehicle organ 2.57 mg): 1.58 mg
- Percent Inhibition (of hair mass vs vehicle-treated organ) ([1]; anthglutin 6.0%, topical): 67.2%
- Hamster Flank Organ Hair Mass, Treated (mean) ([1]; anthglutin 6.0%, topical, contralateral vehicle organ 2.26 mg): 0.74 mg
- inhibition of the activity / inhibitory affinity for hair follicle gamma-glutamyl transpeptidase [3]: strong inhibitory affinity
- inhibition of gamma-glutamyl transpeptidase [4]: specific inhibitor of gamma-glutamyl transpeptidase

SMILES: O=C1OC(c2ccc(O)c(S(=O)(=O)O)c2)(c2ccc(O)c(S(=O)(=O)O)c2)c2c(Br)c(Br)c(Br)c(Br)c21 [bromsulphalein disodium, 5,5'-(4,5,6,7-tetrabromo-3-oxo-1(3H)-isobenzofuranylidene) bis[2-hydroxybenzenesulfonic acid]]
- inhibition of hair mass ([1]; 5% by weight bromsulphalein disodium, topical): 32%
